The source of these data is US8367695B2, “Condensed tetrahydroquinoline derivative and use thereof for medical purposes” (Mitsubishi Tanabe Pharma Corporation, priority 2007, dated 2013).

In one experiment the target is T1, Glucocorticoid Receptor (GR), CHO-GRE-Luc #35 cells (Cricetulus griseus, UniProt A0A9J7F8I2).
T1 sequence (A0A9J7F8I2 1-774): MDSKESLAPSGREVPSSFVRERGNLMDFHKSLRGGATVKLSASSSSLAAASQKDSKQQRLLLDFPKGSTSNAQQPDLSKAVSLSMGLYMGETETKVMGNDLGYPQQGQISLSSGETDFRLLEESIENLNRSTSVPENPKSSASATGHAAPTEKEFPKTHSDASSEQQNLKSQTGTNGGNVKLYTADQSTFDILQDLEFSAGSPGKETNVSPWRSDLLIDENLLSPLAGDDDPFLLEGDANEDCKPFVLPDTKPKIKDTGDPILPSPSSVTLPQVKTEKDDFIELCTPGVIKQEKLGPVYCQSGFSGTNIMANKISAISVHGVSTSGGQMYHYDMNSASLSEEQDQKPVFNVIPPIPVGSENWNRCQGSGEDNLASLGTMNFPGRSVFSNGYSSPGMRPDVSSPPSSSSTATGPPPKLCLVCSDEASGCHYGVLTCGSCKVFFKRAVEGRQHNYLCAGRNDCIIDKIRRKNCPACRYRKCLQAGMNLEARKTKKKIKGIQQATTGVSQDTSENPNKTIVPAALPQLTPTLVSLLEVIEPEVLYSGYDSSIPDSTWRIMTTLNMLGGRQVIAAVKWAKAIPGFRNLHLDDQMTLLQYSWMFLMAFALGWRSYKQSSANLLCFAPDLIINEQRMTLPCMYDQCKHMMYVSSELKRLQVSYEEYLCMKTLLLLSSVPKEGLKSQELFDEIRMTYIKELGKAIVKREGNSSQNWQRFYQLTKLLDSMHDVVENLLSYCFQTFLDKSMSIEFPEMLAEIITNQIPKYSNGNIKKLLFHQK
The experiment can be described thus: Glucocorticoid receptor function test using transgenic-recombinant cell (GRE-luciferase).
Settings: not given
The class given is cell-based. The method, then: Glucocorticoid Receptor Function Test Using Transgenic-Recombinant Cell
Transgenic-recombinant cell was prepared by our company (Yokohama, JP). In Hokkaido System Science Co., Ltd., a cis-element wherein two glucocorticoid responsive elements (GRE) present in the […] promoter region of mouse were connected in tandem was produced on order from synthetic DNA. The gene was incorporated into a plasmid vector having a gene encoding luciferase enzyme. The plasmid was incorporated into CHO-K1 cell to give a transfectant. The expression cell (CHO-GRE-Luc #35) produces luciferase instead of the object protein under regulation of a transcription region involved in the expression of the object protein. That is, using the cell, a substance that controls production of the object protein can be screened for by replacing the substance with the luciferase activity. Fetal Bovine Serum (FBS), L-glutamine, penicillin-streptomycin solution, PBS(−), trypsin-EDTA solution, Opti-MEM medium and G418 were obtained from GIBCO (Auckland, N.Z.). A 10 cm dish and DMEM:HAM′S F12 medium were obtained from IWAKI (Chiba, JP). A 96 well white plate was obtained from Corning (Corning, N.Y.). Bright-Glo was obtained from Promega (Madison, US). Dexamethasone was obtained from Sigma Chemicals (St. Louis, Mo.).
CHO-GRE-Luc #35 cells were cultured for several days in a 10 cm dish in a medium (10% FBS/DMEM:HAM'S F12/2.5 mM L-glutamine/50 U/mL penicillin/25 μg/mL streptomycin/500 μg/mL G418). Sub-confluent cells were washed with a suitable amount of PBS(−), 1 ml of Trypsin-EDTA was added and the cells were stood still in a CO2 incubator at 37° C. for 3 min. A 10-fold amount of Opti-MEM medium was added to give a suspension, which was placed in a centrifugal tube and centrifuged (25° C., 1,000 rpm, 5 min). The supernatant was removed, and the cells were suspended in 5 ml of Opti-MEM medium and counted.
Storage solutions (5-20 mM) of the compound were prepared with DMSO. The storage solutions were diluted with DMSO to 1 mM, and further diluted 100-fold with distilled water or Opti-MEM medium to give solutions. The preparations were diluted with 1% DMSO solution to each concentration. As GR agonist, 10 nM dexamethasone was used. 0.2% DMSO was present at the time of the function assay.
The prepared compound solutions (evaluation compound solution or 1% DMSO solution 10 μL+dexamethasone or 1% DMSO solution 10 μL) were added to the plate. After the addition, the place was stood still in a CO2 incubator at 37° C. for about 6 hr. After the reaction, Bright-Glo was added at 20 μL/well, and the mixture was gently shaken and measured by a microplate luminometer (Turner Designs Instrument).
The IC50 value (nM) of the evaluation compound against GR stimulation with dexamethasone was calculated using Prism 3.0 as an analysis software and assuming one-site competition.
Regarding `C=CCC1(C)C(=O)C(C)(C)Nc2c1cc(-c1cccc3cc[nH]c13)c1c2OCO1` (stereo not drawn) [Example 78, 6-allyl-4-(1H-indol-7-yl)-6,8,8-trimethyl-6,7,8,9-tetrahydro-[1,3]dioxolo[4,5-h]quinolin-7-one], the IC50 was determined as 94 nM.
Same read-out and setting: the result for `CC1(C)Nc2c(cc(-c3cccc4nncn34)c3c2CCC3)C(C)(C)C1=O` [Example 17, 2,2,4,4-tetramethyl-6-([1,2,4]triazolo[4,3-a]pyridin-5-yl)-2,3,4,7,8,9-hexahydro-1H-cyclopenta[h]quinolin-3-one] reads 91 nM.

Staying with this experiment, now noted: against GR stimulation with 10 nM dexamethasone, luciferase, about 6 hr; read-out: GR (IC50: nM).
For the compound `CC1(C)Nc2c(cc(-c3cccc4ncccc34)c3c2CCC3)C(C)(C)C1=O` [Example 20, 2,2,4,4-tetramethyl-6-(quinolin-5-yl)-2,3,4,7,8,9-hexahydro-1H-cyclopenta[h]quinolin-3-one], the half-maximal inhibitory concentration (IC50) turned out to be 74 nM.
As for `CC1(C)Nc2c(cc(-c3cccc4nccn34)c3c2CCO3)C(C)(C)C1=O` [Example 88, 6-(imidazo[1,2-a]pyridin-5-yl)-2,2,4,4-tetramethyl-1,2,3,4,8,9-hexahydro-furo[2,3-h]quinolin-3-one], the 50% inhibitory concentration (IC50) turned out to be 66 nM.
For the compound `CC#CCC1(C)C(=O)C(C)(C)Nc2c1cc(-c1cccc3nccn13)c1c2CCC1` (stereo not drawn) [Example 63, 4-(2-butynyl)-6-(imidazo[1,2-a]pyridin-5-yl)-2,2,4-trimethyl-2,3,4,7,8,9-hexahydro-1H-cyclopenta[h]quinolin-3-one], the IC50 came out at 48 nM.
On to `Cc1noc(C)c1-c1cc2c(c3c1CCC3)NC(C)(C)C(=O)C2(C)C` [Example 2, 6-(3,5-dimethylisoxazol-4-yl)-2,2,4,4-tetramethyl-2,3,4,7,8,9-hexahydro-1H-cyclopenta[h]quinolin-3-one], for which the IC50 was 30 nM.
`CCC1(C)C(=O)C(C)(C)Nc2c1cc(-c1cccc3nccn13)c1c2CCC1` (stereo not drawn) [Example 58, 4-ethyl-6-(imidazo[1,2-s]pyridin-5-yl)-2,2,4-trimethyl-2,3,4,7,8,9-hexahydro-1H-cyclopenta[h]quinolin-3-one]: the IC50 was 37 nM.
As for `CC1(C)Nc2c(cc(-c3ccnc4ncccc34)c3c2CCO3)C(C)(C)C1=O` [Example 92, 2,2,4,4-tetramethyl-6-([1,8]naphthyridin-4-yl)-1,2,3,4,8,9-hexahydro-furo[2,3-h]quinolin-3-one], the IC50 was 73 nM.
The same measure, in the same setting: next, `Cc1onc(CO)c1-c1cc2c(c3ccoc13)NC(C)(C)C(=O)C2(C)C` [Example 94, 6-(3-hydroxymethyl-5-methylisoxazol-4-yl)-2,2,4,4-tetramethyl-1,2,3,4-tetrahydro-furo[2,3-h]quinolin-3-one]: 66 nM; `CC1(C)Nc2c(cc(-c3cccc4nccn34)c3occc23)C(C)(C)C1=O` [Example 98, 6-(imidazo[1,2-a]pyridin-5-yl)-2,2,4,4-tetramethyl-1,2,3,4-tetrahydro-furo[2,3-h]quinolin-3-one]: 31 nM.
For `Cc1noc(C)c1-c1cc2c(c3c1OCC3)NC(C)(C)C(=O)C2(C)C` [Example 84, 6-(3,5-dimethylisoxazol-4-yl)-2,2,4,4-tetramethyl-1,2,3,4,8,9-hexahydro-furo[2,3-h]quinolin-3-one], the IC50 stood at 49 nM.
For the compound `Cc1noc(C)c1-c1cc2c(c3c1OCO3)NC(C)(C)C(=O)C2(C)C` [Example 69, 4-(3,5-dimethylisoxazol-4-yl)-6,6,8,8-tetramethyl-6,7,8,9-tetrahydro-[1,3]dioxolo[4,5-h]quinolin-7-one], the IC50 is 77 nM.
In the case of `C=CCC1(C)C(=O)C(C)(C)Nc2c1cc(-c1c(C)noc1C)c1c2CCC1` (stereo not drawn) [Example 51, 4-allyl-6-(3,5-dimethylisoxazol-4-yl)-2,2,4-trimethyl-2,3,4,7,8,9-hexahydro-1H-cyclopenta[h]quinolin-3-one], the IC50 is 33 nM.
Turning to `Cc1nnn(C)c1-c1cc2c(c3c1CCC3)NC(C)(C)C(=O)C2(C)C` [Example 4, 6-(3,5-dimethyl-3H-[1,2,3]triazol-4-yl)-2,2,4,4-tetramethyl-2,3,4,7,8,9-hexahydro-1H-cyclopenta[h]quinolin-3-one], the IC50 turned out to be 86 nM.
Regarding `CC1(C)Nc2c(cc(-c3ccnc4ncccc34)c3c2CCC3)C(C)(C)C1=O` [Example 21, 2,2,4,4-tetramethyl-6-([1,8]naphthyridin-4-yl)-2,3,4,7,8,9-hexahydro-1H-cyclopenta[h]quinolin-3-one], the IC50 was found to be 53 nM.
Same read-out and setting: next, `Cc1noc(C)c1-c1cc2c(c3c1C(=O)CC3)NC(C)(C)C(=O)C2(C)C` [Example 104, 6-(3,5-dimethylisoxazol-4-yl)-2,2,4,4-tetramethyl-2,3,4,7,8,9-hexahydro-1H-cyclopenta[h]quinoline-3,7-dione]: 128 nM.
In the case of `CC1(C)Nc2c(cc(-c3cncc4nccn34)c3occc23)C(C)(C)C1=O` [Example 100, 6-(imidazo[1,2-a]pyrazin-5-yl)-2,2,4,4-tetramethyl-1,2,3,4-tetrahydro-furo[2,3-h]quinolin-3-one], the IC50 was 47 nM.
As to `C=C1C(C)(C)Nc2c(cc(-c3c(C)ncn3C)c3c2CCC3)C1(C)C` [Example 29, 6-(3,5-dimethyl-3H-imidazol-4-yl)-2,2,4,4-tetramethyl-3-methylene-2,3,4,7,8,9-hexahydro-1H-cyclopenta[h]quinoline], the IC50 is 69 nM.
Take `CC1(C)Nc2c(cc(-c3cccc4nccn34)c3c2OC(F)(F)O3)C(C)(C)C1=O` [Example 82, 2,2-difluoro-4-(imidazo[1,2-a]pyridin-5-yl)-6,6,8,8-tetramethyl-6,7,8,9-tetrahydro-[1,3]dioxolo[4,5-h]quinolin-7-one]: the IC50 stood at 111 nM.
As for `CC1(C)Nc2c(cc(-c3cccc4nccn34)c3c2CCC3)C(C)(C)C1=O` [Example 14, 6-(imidazo[1,2-a]pyridin-5-yl)-2,2,4,4-tetramethyl-2,3,4,7,8,9-hexahydro-1H-cyclopenta[h]quinolin-3-one], the IC50 stood at 21 nM.
For the compound `C=CCC1(C)C(=O)C(C)(C)Nc2c1cc(-c1cccc3nccn13)c1c2CCC1` (stereo not drawn) [Example 57, 4-allyl-6-(imidazo[1,2-a]pyridin-5-yl)-2,2,4-trimethyl-2,3,4,7,8,9-hexahydro-1H-cyclopenta[h]quinolin-3-one], the IC50 stood at 69 nM.
For `C=CCC1(C)C(=O)C(C)(C)Nc2c1cc(-c1ccc(O)cc1C)c1c2CCC1` (stereo not drawn) [Example 50, 4-allyl-6-(4-hydroxy-2-methylphenyl)-2,2,4-trimethyl-2,3,4,7,8,9-hexahydro-1H-cyclopenta[h]quinolin-3-one], the concentration for half-maximal inhibition (IC50) was 61 nM.
With `CC1(C)Nc2c(cc(-c3cccc4ncccc34)c3occc23)C(C)(C)C1=O` [Example 101, 2,2,4,4-tetramethyl-6-(quinolin-5-yl)-1,2,3,4-tetrahydro-furo [2,3-h]quinolin-3-one], the IC50 was 37 nM.
Take `CC1(C)Nc2c(cc(-c3ccnc4cc[nH]c34)c3c2CCC3)C(C)(C)C1=O` [Example 13, 2,2,4,4-tetramethyl-6-(1H-pyrrolo[3,2-b]pyridin-7-yl)-2,3,4,7,8,9-hexahydro-1H-cyclopenta[h]quinolin-3-one]: the IC50 is 31 nM.
